Paper PMC12102759 (Protein Science : A Publication of the Protein Society, 2025)

Tested on: G3BP1 NFT2
Format: binding, human
Details: library DMS-BM; bait G3BP1 NFT2; prey CAPRIN1; AQMQGPYNFIQDSM(averaged): mean of the two overlapping peptides over the shared positions

Substance	DMS position-specific score (PSSM value) per amino-acid substitution, averaged
AQMQGPYNFIQDSM(averaged) Y7F (AQMQGPFNFIQDSM)	0.03551
AQMQGPYNFIQDSM(averaged) P6D (AQMQGDYNFIQDSM)	0.01341
AQMQGPYNFIQDSM(averaged) A1P (PQMQGPYNFIQDSM)	0.07411
AQMQGPYNFIQDSM(averaged) M3G (AQGQGPYNFIQDSM)	0.02919
AQMQGPYNFIQDSM(averaged) M3I (AQIQGPYNFIQDSM)	0.03359
AQMQGPYNFIQDSM(averaged) P6M (AQMQGMYNFIQDSM)	0.05352
AQMQGPYNFIQDSM(averaged) Q4R (AQMRGPYNFIQDSM)	0.00079
AQMQGPYNFIQDSM(averaged) M14N (AQMQGPYNFIQDSN)	0.007055
AQMQGPYNFIQDSM(averaged) P6Y (AQMQGYYNFIQDSM)	0.1155
AQMQGPYNFIQDSM(averaged) P6N (AQMQGNYNFIQDSM)	0.03046
AQMQGPYNFIQDSM(averaged) Q4H (AQMHGPYNFIQDSM)	0.0707
AQMQGPYNFIQDSM(averaged) M14T (AQMQGPYNFIQDST)	0.005834
AQMQGPYNFIQDSM(averaged) I10N (AQMQGPYNFNQDSM)	0.0004895
AQMQGPYNFIQDSM(averaged) Q4G (AQMGGPYNFIQDSM)	0.08843
AQMQGPYNFIQDSM(averaged) M14Y (AQMQGPYNFIQDSY)	0.01132
AQMQGPYNFIQDSM(averaged) F9V (AQMQGPYNVIQDSM)	0.0005113
AQMQGPYNFIQDSM(averaged) F9A (AQMQGPYNAIQDSM)	0
AQMQGPYNFIQDSM(averaged) I10V (AQMQGPYNFVQDSM)	0.004849
AQMQGPYNFIQDSM(averaged) S13P (AQMQGPYNFIQDPM)	0
AQMQGPYNFIQDSM(averaged) N8E (AQMQGPYEFIQDSM)	0.01047
AQMQGPYNFIQDSM(averaged) N8Q (AQMQGPYQFIQDSM)	0.04567
AQMQGPYNFIQDSM(averaged) A1M (MQMQGPYNFIQDSM)	0.03265
AQMQGPYNFIQDSM(averaged) Y7Y	0.5479
AQMQGPYNFIQDSM(averaged) N8L (AQMQGPYLFIQDSM)	0.06185
AQMQGPYNFIQDSM(averaged) N8D (AQMQGPYDFIQDSM)	0.05276
AQMQGPYNFIQDSM(averaged) P6Q (AQMQGQYNFIQDSM)	0.00431
AQMQGPYNFIQDSM(averaged) F9M (AQMQGPYNMIQDSM)	0

Substance	DMS position-specific score (PSSM value) per amino-acid substitution, averaged
AQMQGPYNFIQDSM(averaged) F9N (AQMQGPYNNIQDSM)	0
AQMQGPYNFIQDSM(averaged) Q2P (APMQGPYNFIQDSM)	0.007875
AQMQGPYNFIQDSM(averaged) S13T (AQMQGPYNFIQDTM)	0.05884
AQMQGPYNFIQDSM(averaged) P6A (AQMQGAYNFIQDSM)	0.08584
AQMQGPYNFIQDSM(averaged) A1R (RQMQGPYNFIQDSM)	0.004419
AQMQGPYNFIQDSM(averaged) F9L (AQMQGPYNLIQDSM)	0.0005113
AQMQGPYNFIQDSM(averaged) G5F (AQMQFPYNFIQDSM)	0.2345
AQMQGPYNFIQDSM(averaged) Q2L (ALMQGPYNFIQDSM)	0.006039
AQMQGPYNFIQDSM(averaged) Q11V (AQMQGPYNFIVDSM)	0.06659
AQMQGPYNFIQDSM(averaged) F9P (AQMQGPYNPIQDSM)	0
AQMQGPYNFIQDSM(averaged) I10W (AQMQGPYNFWQDSM)	0.1749
AQMQGPYNFIQDSM(averaged) A1L (LQMQGPYNFIQDSM)	0.06855
AQMQGPYNFIQDSM(averaged) Q11F (AQMQGPYNFIFDSM)	0.006502
AQMQGPYNFIQDSM(averaged) Y7L (AQMQGPLNFIQDSM)	0.1143
AQMQGPYNFIQDSM(averaged) Q11L (AQMQGPYNFILDSM)	0.00722
AQMQGPYNFIQDSM(averaged) A1F (FQMQGPYNFIQDSM)	0.03963
AQMQGPYNFIQDSM(averaged) M14F (AQMQGPYNFIQDSF)	0.1772
AQMQGPYNFIQDSM(averaged) M14W (AQMQGPYNFIQDSW)	0.06336
AQMQGPYNFIQDSM(averaged) G5I (AQMQIPYNFIQDSM)	0.01217
AQMQGPYNFIQDSM(averaged) I10Q (AQMQGPYNFQQDSM)	0.01591
AQMQGPYNFIQDSM(averaged) M3R (AQRQGPYNFIQDSM)	0.003692
AQMQGPYNFIQDSM(averaged) G5G	0.2298
AQMQGPYNFIQDSM(averaged) S13I (AQMQGPYNFIQDIM)	0.01393
AQMQGPYNFIQDSM(averaged) S13G (AQMQGPYNFIQDGM)	0.0006715
AQMQGPYNFIQDSM(averaged) I10K (AQMQGPYNFKQDSM)	0.0003536
AQMQGPYNFIQDSM(averaged) A1Q (QQMQGPYNFIQDSM)	0.1157
AQMQGPYNFIQDSM(averaged) M3H (AQHQGPYNFIQDSM)	0.02176

Substance	DMS position-specific score (PSSM value) per amino-acid substitution, averaged
AQMQGPYNFIQDSM(averaged) N8F (AQMQGPYFFIQDSM)	0.00737
AQMQGPYNFIQDSM(averaged) I10T (AQMQGPYNFTQDSM)	0.01974
AQMQGPYNFIQDSM(averaged) N8G (AQMQGPYGFIQDSM)	0.001288
AQMQGPYNFIQDSM(averaged) Q2V (AVMQGPYNFIQDSM)	0.04598
AQMQGPYNFIQDSM(averaged) D12G (AQMQGPYNFIQGSM)	0.006593
AQMQGPYNFIQDSM(averaged) G5W (AQMQWPYNFIQDSM)	0.033
AQMQGPYNFIQDSM(averaged) Q4M (AQMMGPYNFIQDSM)	0.02121
AQMQGPYNFIQDSM(averaged) Q11K (AQMQGPYNFIKDSM)	0.0002863
AQMQGPYNFIQDSM(averaged) M14L (AQMQGPYNFIQDSL)	0.006578
AQMQGPYNFIQDSM(averaged) D12F (AQMQGPYNFIQFSM)	0.004771
AQMQGPYNFIQDSM(averaged) S13Q (AQMQGPYNFIQDQM)	0
AQMQGPYNFIQDSM(averaged) G5T (AQMQTPYNFIQDSM)	0.007904
AQMQGPYNFIQDSM(averaged) P6R (AQMQGRYNFIQDSM)	0.01834
AQMQGPYNFIQDSM(averaged) G5N (AQMQNPYNFIQDSM)	0.002472
AQMQGPYNFIQDSM(averaged) Y7A (AQMQGPANFIQDSM)	0
AQMQGPYNFIQDSM(averaged) A1K (KQMQGPYNFIQDSM)	0.0005059
AQMQGPYNFIQDSM(averaged) I10L (AQMQGPYNFLQDSM)	0.1472
AQMQGPYNFIQDSM(averaged) P6L (AQMQGLYNFIQDSM)	0.02822
AQMQGPYNFIQDSM(averaged) G5R (AQMQRPYNFIQDSM)	0.0001509
AQMQGPYNFIQDSM(averaged) Q2M (AMMQGPYNFIQDSM)	0.123
AQMQGPYNFIQDSM(averaged) A1T (TQMQGPYNFIQDSM)	0.005821
AQMQGPYNFIQDSM(averaged) M14H (AQMQGPYNFIQDSH)	0.004419
AQMQGPYNFIQDSM(averaged) D12Q (AQMQGPYNFIQQSM)	0.008788
AQMQGPYNFIQDSM(averaged) I10F (AQMQGPYNFFQDSM)	0.1045
AQMQGPYNFIQDSM(averaged) I10G (AQMQGPYNFGQDSM)	0.004165
